US20260335398A1, “METHODS FOR TREATING PANCREATIC CANCER WITH A COMBINATION OF DES-METHYL PATEAMINE A AND A CLASS I HDAC INHIBITOR” (Baylor University, priority 2023, published 2026)

How the values were obtained:
[1] = system: c-MYC; test: Immunoblot of c-MYC protein levels in PDAC cell lines treated with DMPatA and DMDAPatA (FIG. 6B); format: cell-based; conditions: Capan-1, PANC-1, AsPC-1, MIA PaCa-2; 24 and 48 hours; DMPatA 10 and 20 nM, DMDAPatA 40 nM
Method: FIG. 6B compares immunoblots of c-MYC protein levels from whole cell extracts of various PDAC cell lines (Capan-1, PANC-t, AsPC-1, MIA PaCa-2) treated with DMPatA (10 nM and 20 nM) and DMDPatA ([…]) (40 nM). Treatment was for 24 and 48 hours.
Western blotting was carried out as previously described (Luchenko V L, Litman T, Chakraborty A R, et al. 65. Membranes were probed with primary antibodies: Phospho-Histone H2A.X (Ser139) (1:1000, Millipore Sigma #05-636), GAPDH (1:10000, Abcam #ab8245), c-Myc (1:1000, Abcam #ab32072), β-Actin (1:1000, Cell Signaling Technology (CST), #8457), Phospho-RPA32/RPA2 (Ser33) (1:1000, Cell Signaling Technology #10148), Phospho-Chk1 (Ser345) (1:1000, CST #2341), and secondary antibodies IRDye® 680RD Goat anti-Mouse and IRDye® 800CW Goat anti-Rabbit (both from LI-COR Biosciences). Signal quantification was performed using the Odyssey CLx imaging system (LI-COR Biosciences), capturing various exposures within the linear range with ImageStudio software V3.1 (LI-COR Biosciences).

[2] = Body weight of xenograft mice (FIG. 2B); format: in vivo, athymic nude mice; conditions: IP; romidepsin 0.75 mg/kg, DMPatA 0.075 mg/kg
Source text: FIGS. 2A and 2B illustrate the results of a MIA PaCa-2 xenograft model of PDAC in male athymic nude mice. FIG. 2A compares tumor growth (mm^3) in mice treated with the indicated concentrations of combination, romidepsin and DMPatA using IP route and vehicles described in the materials and methods section below. FIG. 2B compares body weight (g) of mice treated with the combination and single agents following treatment. FIGS. 2C and 2D compare quantification of H3K9ac and c-MYC antibodies. Frozen sections from MIA PaCa-2 xenograft tumor tissues were subjected to immunohistochemical analysis using antibodies against H3K9ac, and c-MYC. Fluorescence images were captured using fluorescent microscopy and the fluorescent signal from H3K9ac and c-MYC antibodies were quantified. To quantify fluorescence intensity at least 500 cells per condition were measured for each antibody at 40× magnification. The median of the signal intensity is shown. Statistical significance was determined by one-way ANOVA using Tukey multiple comparisons test, ****p value<0.0001.
Animal studies were performed according to Institutional Animal Care and Use Committee (IACUC) protocol number AC-AABD2601. Following the establishment of initial dose levels for individual drugs, efficacy of the combination and single agents in a MIA PaCa-2 xenograft model was assessed at a tolerable dose and schedule. […]

[3] = system: PDAC cell lines (Capan-1, PANC-1, AsPC-1, MIA PaCa-2); test: Cytotoxicity/cell viability (CellTiter-Glo) of DMPatA on PDAC cell lines, 48 h (FIG. 6A); format: cell-based; conditions: four PDAC cell lines (Capan-1, PANC-1, AsPC-1, MIA PaCa-2)
Method: FIG. 6A compares cytotoxicity graphs of the effect (viability) of DMPatA on various PDAC cell lines (Capan-1, PANC-1, AsPC-1, MIA PaCa-2) following 48 hours of treatment.
(§1) Previous studies have reported that inhibitors of translation initiation prevent cell proliferation and reduce levels of critical oncoproteins such as MYC and cyclinD1. The effects of DMPatA, a novel inhibitor of eIF4A helicase, was evaluated on four PDAC cell lines. All cells were sensitive to treatment with IC50s ranging from 2.8 to 10 nM (FIG. 6A). […] The efficacy of another eIF4Ai, zotatifin (eFT226), was evaluated on MIA PaCa-2 and KLM cells.
(§2) Cell viability was determined using CellTiter-Glo® reagent (Promega, #G7570) following the manufacturer's instructions. Cells were seeded at […] in white 96-well plates and grown overnight. They were then treated and incubated at 37 °C with 5% CO2. After incubation, assay reagent was added, and luminescent signals were quantified using a microplate reader (PHERAstar® FS, BMG LABTECH, Ortenberg, Germany). Caspase-Glo 3/7 assay (Promega, #G8091) was also employed following the manufacturer's instructions to measure apoptosis.

[4] = system: MIA PaCa-2 and KLM cells; test: RNA-seq gene expression analysis (FIG. 9A); format: cell-based; conditions: total 18 h (6 h romidepsin 15 nM + 12 h with/without DMPatA 2 nM); |log2FC|≥1, adjusted p<0.05
Method: Plots show a significant increase in the overall gene expression in the cells treated with the combination. Cells treated for a total of 18 h (i.e., 6-hour romidepsin followed by 12-hour incubation with 2 nM DMPatA (combo) or without (Romi alone)).
To gain further insight into the effects of the combination treatment gene expression was profiled in MIA PaCa-2 and KLM cells treated with vehicle, the single agents, or the combination for a total of 18 h (i.e., 6-hour romidepsin treatment followed by 12-hour washout with 2 nM DMPatA or without), probing whether alterations observed following combination treatment could be explained by changes in gene expression.
Total RNA was extracted using RNeasy mini kit (Qiagen) from cells collected after 18 hours (6 hours romidepsin (15 nM)+12 hours washout with or without DMPatA (2 nM)) incubation with or without drugs. RNA quantitation and quality were assessed by the Agilent Bioanalyzer 2100 at the Molecular Pathology Shared Resource of the Herbert Irving Comprehensive Cancer Center at Columbia University (mBank). RNA library preparation and sequencing was performed at Columbia University's Sulzberger Genome Center. Briefly, poly-A pull-down was used to enrich mRNAs from total RNA samples, followed by library construction using Illumina TruSeq chemistry. Libraries were then sequenced using Illumina NovaSeq 6000. For the DESeq2 (v 1.40.2) analysis the data were imported with tximport in DESeq2 and a dds object was generated. Variance stabilizing transformation was used on the object and the output was used for the heatmap and PCA plots. Abundance of transcripts was estimated by pseudoalignment using kallisto, and downstream analysis was performed using R (v4.3.1) and the indicated packages. […] Differentially expressed genes were determined using linear regression method (limma v3.56.2), and genes with |log 2FC|≥1 and adjusted p-value <0.05 were plotted accordingly on volcano plots and heatmap (ggplot2 v3.5.0 and ComplexHeatmap v2.16.0). […]

[5] = system: MIA PaCa-2 and KLM cells; test: Cell proliferation with zotatifin on MIA PaCa-2 and KLM cells; format: cell-based
Method: as §1, §2

For `CC(/C=C/C(C)=C/[C@@H]1Cc2nc(cs2)CCCCC(=O)O[C@@H](C)C/C(C)=C/C=C\C(=O)O1)=C\CN(C)C` [DMDAPatA, des-methyl des-amino pateamine A], the c-MYC protein levels [1] was “reduced c-MYC levels in all cell lines”.

In the case of `CC(/C=C/C(C)=C/[C@@H]1Cc2nc(cs2)CC[C@@H](N)CC(=O)O[C@@H](C)C/C(C)=C/C=C\C(=O)O1)=C\CN(C)C` [DMPatA, des-methyl pateamine A], the “body weight vs vehicle” value [2] is reported as “neither the single agent nor the combination treatments had a significant impact on weight”, the IC50 [3] is reported as 2.8 to 10 nM and the “number of differentially expressed genes (DEGs)” value [4] is reported as 1443 DEGs.

For `COc1cc2c(c(OC)n1)[C@]1(O)[C@H](O)[C@H](CN(C)C)[C@@H](c3ccccc3)[C@]1(c1ccc(C#N)cc1)O2` [zotatifin], the “potency in suppressing proliferation, DMPatA vs zotatifin” value [5] was “reduced potency, compared to DMPatA”.
